IC50 data for 19 compounds are collected here from patent publication US10273248B2, “Glucose uptake inhibitors” (Kadmon Corporation LLC, priority 2015, dated 2019).

Each structure is given as a SMILES string.

Usually IC50 stands for the midpoint of a concentration-inhibition curve.

This experiment has as its system glycolysis in HT1080 cells. As to the kind of experiment: Glycolysis assay: oligomycin plus compound, cellular ATP by Cell Titer Glo. Type of experiment: cell-based. The following applies: Homo sapiens, HT-1080, 1 h, 10 μM oligomycin, one hour, class symbols. The source says: Therefore, an assay was developed that utilizes the combination of the glucose uptake inhibitors disclosed herein with oligomycin, a well-characterized inhibitor of ATP synthase. Because oligomycin inhibits ATP derived from oxidative phosphorylation, any remaining ATP production is derived from glycolysis. By reading out cellular ATP levels using the Promega Cell Titer Glo kit, the extent of glycolysis inhibition by the glucose uptake inhibitors disclosed herein can be assessed. […] Utilizing this experimental set-up, the IC50 of glycolysis inhibition for each compound can be determined.
Determination of Glucose Uptake/GLUT Activity (Glycolysis Assay):
HT1080 cells (as well as other cell types) were plated to confluency in 96-well plates. Cells were exposed to the combination of 10 μM Oligomycin (to block mitochondrial-derived ATP) and the glucose uptake inhibitors disclosed herein for one-hour, after which glycolytically-derived ATP was measured with the Cell Titer-Glo assay kit (Promega). Dose-response curves of the glucose uptake inhibitors disclosed herein were used to determine the IC50 for GLUT activity.
For orientation: In ATP-based viability assays light output follows the ATP content of the culture.
For the compound `O=C(CN1CCOCC1)Nc1cccc(-c2nc3c(c(Nc4ccc(-c5cn[nH]c5)cc4)n2)COC3)c1` [Example 2, N-(3-(4-((4-(1H-pyrazol-4-yl)phenyl)amino)-5,7-dihydrofuro[3,4-d]pyrimidin-2-yl)phenyl)-2-morpholinoacetamide], the IC50 was over 1000 nM.

Turning to `CC(C)NC(=O)COc1cccc(-c2nc(Nc3ccc(-c4cn[nH]c4)cc3)c3occc3n2)c1` [Example 3, 2-(3-(4-((4-(1H-pyrazol-4-yl)phenyl)amino)furo[3,2-d]pyrimidin-2-yl)phenoxy)-N-isopropylacetamide], the IC50 was 251 to 500 nM.

Turning to `O=C(CN1CCOCC1)Nc1cccc(-c2nc(Nc3ccc(-c4cn[nH]c4)cc3)c3occc3n2)c1` [Example 4, N-(3-(4-((4-(1H-pyrazol-4-yl)phenyl)amino)furo[3,2-d]pyrimidin-2-yl)phenyl)-2-morpholinoacetamide], the IC50 was over 1000 nM. With `Cn1cnc2c(Nc3ccc(-c4cn[nH]c4)cc3)nc(-c3cccc(NC(=O)CN4CCOCC4)c3)nc21` [Example 6, N-(3-(6-((4-(1H-pyrazol-4-yl)phenyl)amino)-9-methyl-9H-purin-2-yl)phenyl)-2-morpholinoacetamide], the IC50 is over 1000 nM. Next, `O=C(CN1CCOCC1)Nc1cccc(-c2nc(Nc3ccc(-c4cn[nH]c4)cc3)c3sccc3n2)c1` [Example 8, N-(3-(4-((4-(1H-pyrazol-4-yl)phenyl)amino)thieno[3,2-d]pyrimidin-2-yl)phenyl)-2-morpholinoacetamide]: over 1000 nM. As to `CC(C)NC(=O)COc1cccc(-c2nc(Nc3ccc(-c4cn[nH]c4)cc3)c3ccsc3n2)c1` [Example 9, 2-(3-(4-((4-(1H-pyrazol-4-yl)phenyl)amino)thieno[2,3-d]pyrimidin-2-yl)phenoxy)-N-isopropylacetamide], the IC50 was 101 to 250 nM. With `O=C(CN1CCOCC1)Nc1cccc(-c2nc(Nc3ccc(-c4cn[nH]c4)cc3)c3ccsc3n2)c1` [Example 10, N-(3-(4-((4-(1H-pyrazol-4-yl)phenyl)amino)thieno[2,3-d]pyrimidin-2-yl)phenyl)-2-morpholinoacetamide], the IC50 is over 1000 nM.

Consider `CC(C)NC(=O)COc1cccc(-c2nc3c(c(Nc4ccc5[nH]ncc5c4)n2)COC3)c1` [Example 11, 2-(3-(4-((1H-indazol-5-yl)amino)-5,7-dihydrofuro[3,4-d]pyrimidin-2-yl)phenoxy)-N-isopropylacetamide], for which the IC50 is over 1000 nM. As for `CC(C)NC(=O)COc1cccc(-c2nc(Nc3ccc4[nH]ncc4c3)c3ncn(C)c3n2)c1` [Example 13], the figure is over 1000 nM.

Take `Cn1cnc2c(Nc3ccc4[nH]ncc4c3)nc(-c3cccc(NC(=O)CN4CCOCC4)c3)nc21` [Example 14]: the IC50 is over 1000 nM. As for `CC(C)NC(=O)COc1cccc(-c2nc(Nc3ccc4[nH]ncc4c3)c3sccc3n2)c1` [Example 15], the IC50 is over 1000 nM. `O=C(CN1CCOCC1)Nc1cccc(-c2nc(Nc3ccc4[nH]ncc4c3)c3sccc3n2)c1` [Example 16]: the IC50 was over 1000 nM. Next, `CC(C)NC(=O)COc1cccc(-c2nc(Nc3ccc4[nH]ncc4c3)c3ccsc3n2)c1` [Example 17]: over 1000 nM.

`O=C(CN1CCOCC1)Nc1cccc(-c2nc(Nc3ccc4[nH]ncc4c3)c3ccsc3n2)c1` [Example 18]: the IC50 was over 1000 nM. Turning to `O=C(COc1cccc(-c2nc(Nc3ccc(-c4cn[nH]c4)cc3)c3sccc3n2)c1)NC1CC1` [Example 20], the IC50 was in the range of 501 to 1000 nM. For `Cn1cnc2c(Nc3ccc(-c4cn[nH]c4)cc3)nc(-c3cccc(OCC(=O)NC4CC4)c3)nc21` [Example 22], the IC50 is over 1000 nM. As for `O=C(COc1cccc(-c2nc(Nc3ccc(-c4cn[nH]c4)cc3)c3occc3n2)c1)NC1CCC1` [Example 25], the IC50 was 251 to 500 nM. Consider `O=C(COc1cccc(-c2nc(Nc3ccc(-c4cn[nH]c4)cc3)c3occc3n2)c1)NC1CCCC1` [Example 26], for which the IC50 was 251 to 500 nM. As to `O=C(COc1cccc(-c2nc(Nc3ccc(-c4cn[nH]c4)cc3)c3ccsc3n2)c1)NC1CCC1` [Example 27], the IC50 was 101 to 250 nM.
